The values below come from ChEMBL document CHEMBL5528042, “Identification of Novel, Selective Ataxia-Telangiectasia Mutated Kinase Inhibitors with the Ability to Penetrate the Blood-Brain Barrier: The Discovery of AZD1390” (J Med Chem, 2024).

Converted amounts (≈) assume the structure as drawn.

Test system in one data set: not listed separately
The data set is described as follows: Unbound fraction in Cynomolgus monkey plasma at iv administered as bolus injection measured at 4 to 90 mins by PET analysis. In kind it is ADME, organism-based, Macaca fascicularis. Particulars: time 4-90 min.
Take `CC(C)n1c(=O)n([11CH3])c2cnc3cc(F)c(-c4ccc(OCCCN(C)C)nc4)cc3c21`: the fraction unbound (usually the share of the substance not bound to proteins or other matrix) worked out at 0.195.

`CC(C)n1c(=O)n([11CH3])c2cnc3cc(F)c(-c4ccc(OCCCN5CCCCC5)nc4)cc3c21`: the fraction unbound stood at 0.175.

A further data set deals with Serine/threonine-protein kinase mTOR (Homo sapiens, UniProt P42345). The data set is described as follows: Inhibition of mTOR in human MDA-MB-468 cells incubated for 2.5 hrs by Alexa Fluor 488 staining based fluorescence analysis. In kind it is cell-based.
Details: not given
For the compound `CC(C)n1c(=O)n(C)c2cnc3ccc(-c4ccc(N5CC[C@@H](N(C)C)C5)nc4)cc3c21`, it took 3160 nM to reach half-maximal inhibition (IC50).

Test system in a further data set: not listed separately
The experiment in a line: Apparent permeability across apical to basolateral side in dog MDCKII-MDR1 cells overexpressing BCRP at 1 uM incubated for 90 mins by LC-MS/MS analysis. The class given is ADME, cell-based, Canis lupus familiaris, MDCK-MDR1.
Details: not given
`CC(C)n1c(=O)n(C)c2cnc3ccc(-c4ccc(N5CC[C@@H](N(C)C)C5)nc4)cc3c21`: the Papp A→B (as a rule, the apparent permeability from the apical to the basolateral side of a cell layer) at […], 1 µM turned out to be 27 ×10⁻⁶ cm/s.

Test system in a further data set: not listed separately
The experiment in a line: Intrinsic clearance in rat hepatocyte assessed per 10^6 cells. The note with it: hepatocytes, read-out: CLH. In kind it is ADME, cell-based.
Consider `CC(C)n1c(=O)n(C)c2cnc3ccc(-c4ccc(N5CC[C@@H](N(C)C)C5)nc4)cc3c21`, for which the hepatocyte CLint was found to be 27 µL/min/1e6 cells.

Test system in another data set: not listed separately
The experiment in a line: Volume of distribution at steady state in dog at 2 mg/kg,po or 1 mg/kg,iv administration measured for 24 hrs by LC-MS/MS analysis. In kind it is ADME, organism-based, Canis lupus familiaris. The note with it: in vivo.
With `CC(C)n1c(=O)n(C)c2cnc3ccc(-c4ccc(N5CC[C@@H](N(C)C)C5)nc4)cc3c21`, the Vdss is 7.5 L/kg.

Test system in another data set: not listed separately
The data set is described as follows: Half life in dog at 2 mg/kg,po or 1 mg/kg,iv administration measured for 24 hrs by LC-MS/MS analysis. The class given is ADME, organism-based, Canis lupus familiaris. The note with it: in vivo.
Regarding `CC(C)n1c(=O)n(C)c2cnc3ccc(-c4ccc(N5CC[C@@H](N(C)C)C5)nc4)cc3c21`, the half-life (as a rule, how long it takes for the measured level to halve) was 1.6 h.

Test system in the next data set: not listed separately
The data set is described as follows: Intrinsic clearance in human hepatocyte assessed per 10^6 cells. The class given is ADME, cell-based. Particulars: hepatocytes, read-out: CLH.
As for `CC(C)n1c(=O)n(C)c2cnc3ccc(-c4ccc(N5CC[C@@H](N(C)C)C5)nc4)cc3c21`, the hepatocyte CLint worked out at 4.5 µL/min/1e6 cells.

Test system in a further data set: not listed separately
The data set is described as follows: Bioavailability in rat at 1 mg/kg,po or 0.5 mg/kg,iv administration measured for 24 hrs by LC-MS/MS analysis. In kind it is ADME, organism-based. The note with it: in vivo.
`CC(C)n1c(=O)n(C)c2cnc3ccc(-c4ccc(N5CC[C@@H](N(C)C)C5)nc4)cc3c21`: the bioavailability (usually the share of a dose that reaches the circulation, judged against a reference dose that is usually intravenous) turned out to be 53%.

Test system in the next data set: not listed separately
The data set is described as follows: Plasma protein binding in dog assessed as unbound fraction incubated for 16 hrs by equilibrium dialysis based UPLC-MS/MS analysis. In kind it is ADME, cell-free, Canis lupus familiaris.
Details: not given
Regarding `CC(C)n1c(=O)n(C)c2cnc3ccc(-c4ccc(N5CC[C@@H](N(C)C)C5)nc4)cc3c21`, the fraction unbound at 16 h was 0.26.

Test system in the next data set: not listed separately
The data set is described as follows: Unbound fraction in Cynomolgus monkey brain at iv administered as bolus injection measured at 4 to 90 mins by PET analysis. In kind it is ADME, organism-based, Macaca fascicularis. The note with it: time 4-90 min.
In turn, `CC(C)n1c(=O)n([11CH3])c2cnc3cc(F)c(-c4ccc(OCCCN(C)C)nc4)cc3c21` returned a fraction unbound of 0.02.

On to `CC(C)n1c(=O)n([11CH3])c2cnc3cc(F)c(-c4ccc(OCCCN5CCCCC5)nc4)cc3c21`, for which the fraction unbound stood at 0.01.

Test system in another data set: not listed separately
The data set is described as follows: Unbound brain to plasma drug concentration ratio in Cynomolgus monkey at iv administered as bolus injection measured at 4 to 90 mins by PET analysis. Particulars: time 4-90 min, read-out: K(p,uu,brain). In kind it is ADME, organism-based, Macaca fascicularis.
`CC(C)n1c(=O)n([11CH3])c2cnc3cc(F)c(-c4ccc(OCCCN(C)C)nc4)cc3c21`: the Kp uu amounted to 0.41.

In the case of `CC(C)n1c(=O)n([11CH3])c2cnc3cc(F)c(-c4ccc(OCCCN5CCCCC5)nc4)cc3c21`, the Kp uu is 0.33.

Test system in a further data set: not listed separately
The experiment in a line: Tmax in Cynomolgus monkey at iv administered as bolus injection measured at 4 to 90 mins by gamma counter analysis. In kind it is ADME, organism-based, Macaca fascicularis. Particulars: in vivo, time 4-90 min.
Take `CC(C)n1c(=O)n([11CH3])c2cnc3cc(F)c(-c4ccc(OCCCN(C)C)nc4)cc3c21`: the Tmax (as a rule, the time at which the peak concentration occurs) is 4.5 min.

For `CC(C)n1c(=O)n([11CH3])c2cnc3cc(F)c(-c4ccc(OCCCN5CCCCC5)nc4)cc3c21`, the Tmax amounted to 9.3 min.

Test system in another data set: not listed separately
The data set is described as follows: Aqueous solubility of the compound in pH 7.4. The class given is physicochemical. The note with it: buffer.
With `CC(C)n1c(=O)n(C)c2cnc3ccc(-c4ccc(N5CC[C@@H](N(C)C)C5)nc4)cc3c21`, the concentration in solution (solubility) was 22 µM (≈ 9.47 µg/mL).

Test system in another data set: not listed separately
The experiment in a line: Half life in rat at 1 mg/kg,po or 0.5 mg/kg,iv administration measured for 24 hrs by LC-MS/MS analysis. In kind it is ADME, organism-based. Particulars: in vivo.
`CC(C)n1c(=O)n(C)c2cnc3ccc(-c4ccc(N5CC[C@@H](N(C)C)C5)nc4)cc3c21` had a half-life of 2.9 h.

Test system in the next data set: not listed separately
The data set is described as follows: Dissociation constant, pKa of compound.
Details: not given
In kind it is physicochemical.
Consider `CC(C)n1c(=O)n(C)c2cnc3ccc(-c4ccc(N5CC[C@@H](N(C)C)C5)nc4)cc3c21`, for which the pKa – broadly, the pH at which an ionisable group is half protonated – turned out to be 7.9.

Test system in the next data set: not listed separately
The experiment in a line: Volume of distribution at steady state in rat at 1 mg/kg,po or 0.5 mg/kg,iv administration measured for 24 hrs by LC-MS/MS analysis. Particulars: in vivo. The class given is ADME, organism-based.
Consider `CC(C)n1c(=O)n(C)c2cnc3ccc(-c4ccc(N5CC[C@@H](N(C)C)C5)nc4)cc3c21`, for which the Vdss is 0.6 L/kg.

The target in another data set is Phosphatidylinositol 4,5-bisphosphate 3-kinase catalytic subunit alpha isoform (Homo sapiens, UniProt P42336). The experiment in a line: Inhibition of PI3Kalpha in human BT-474 cells incubated for 140 mins by ELISA. In kind it is cell-based.
Phosphatidylinositol 4,5-bisphosphate 3-kinase catalytic subunit alpha isoform, sequence (P42336 whole entry, canonical isoform): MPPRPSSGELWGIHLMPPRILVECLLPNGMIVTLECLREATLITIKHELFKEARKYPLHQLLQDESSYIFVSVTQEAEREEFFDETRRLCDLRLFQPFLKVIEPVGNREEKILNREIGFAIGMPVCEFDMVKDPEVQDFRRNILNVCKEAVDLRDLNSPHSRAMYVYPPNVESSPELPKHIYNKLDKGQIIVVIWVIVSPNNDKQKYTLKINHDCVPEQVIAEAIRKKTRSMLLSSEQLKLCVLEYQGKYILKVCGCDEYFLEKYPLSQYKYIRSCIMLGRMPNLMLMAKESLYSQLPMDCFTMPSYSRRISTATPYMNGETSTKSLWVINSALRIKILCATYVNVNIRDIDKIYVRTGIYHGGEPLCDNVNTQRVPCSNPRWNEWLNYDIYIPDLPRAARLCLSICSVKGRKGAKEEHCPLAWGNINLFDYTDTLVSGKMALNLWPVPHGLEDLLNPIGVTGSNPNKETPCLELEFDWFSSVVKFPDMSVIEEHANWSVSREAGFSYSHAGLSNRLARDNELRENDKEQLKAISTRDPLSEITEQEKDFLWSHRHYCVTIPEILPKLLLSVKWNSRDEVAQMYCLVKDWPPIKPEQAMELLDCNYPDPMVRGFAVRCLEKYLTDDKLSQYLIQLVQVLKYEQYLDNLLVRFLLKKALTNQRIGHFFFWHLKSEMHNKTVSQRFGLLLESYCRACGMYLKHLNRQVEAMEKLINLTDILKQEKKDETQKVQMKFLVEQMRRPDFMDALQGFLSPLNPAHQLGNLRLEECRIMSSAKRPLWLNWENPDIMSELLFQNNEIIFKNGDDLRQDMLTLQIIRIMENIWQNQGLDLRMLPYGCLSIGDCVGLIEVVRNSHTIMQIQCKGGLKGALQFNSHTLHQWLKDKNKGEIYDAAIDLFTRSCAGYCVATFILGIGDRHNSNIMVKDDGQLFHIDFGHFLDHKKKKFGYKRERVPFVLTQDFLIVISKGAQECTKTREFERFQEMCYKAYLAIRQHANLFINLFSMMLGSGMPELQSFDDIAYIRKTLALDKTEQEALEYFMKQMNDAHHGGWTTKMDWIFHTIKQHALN
Details: not given
Consider `CC(C)n1c(=O)n(C)c2cnc3ccc(-c4ccc(N5CC[C@@H](N(C)C)C5)nc4)cc3c21`, for which the IC50 (usually the concentration that gives 50% inhibition) was 316 nM.

Test system in a further data set: not listed separately
The data set is described as follows: Intrinsic clearance in dog hepatocyte assessed per 10^6 cells. Particulars: hepatocytes, read-out: CLH. In kind it is ADME, cell-based, Canis lupus familiaris.
For `CC(C)n1c(=O)n(C)c2cnc3ccc(-c4ccc(N5CC[C@@H](N(C)C)C5)nc4)cc3c21`, the hepatocyte CLint was 80 µL/min/1e6 cells.

Test system in a further data set: not listed separately
The experiment in a line: Plasma protein binding in human assessed as unbound fraction incubated for 16 hrs by equilibrium dialysis based UPLC-MS/MS analysis. In kind it is ADME, cell-free.
Details: not given
On the technique in general: In equilibrium dialysis free small molecules cross a membrane that holds back macromolecules.
In the case of `CC(C)n1c(=O)n(C)c2cnc3ccc(-c4ccc(N5CC[C@@H](N(C)C)C5)nc4)cc3c21`, the fraction unbound at 16 h was 0.07.

Test system in the next data set: not listed separately
The experiment in a line: Plasma protein binding in rat assessed as unbound fraction incubated for 16 hrs by equilibrium dialysis based UPLC-MS/MS analysis.
Details: not given
The class given is ADME, cell-free.
Turning to `CC(C)n1c(=O)n(C)c2cnc3ccc(-c4ccc(N5CC[C@@H](N(C)C)C5)nc4)cc3c21`, the fraction unbound at 16 h turned out to be 0.004.

Test system in a further data set: not listed separately
The data set is described as follows: Lipophilicity, logD of the compound at pH 7.4. The class given is physicochemical. Particulars: buffer.
For `CC(C)n1c(=O)n(C)c2cnc3ccc(-c4ccc(N5CC[C@@H](N(C)C)C5)nc4)cc3c21`, the logD (in general, lipophilicity at a set pH, counting ionised and neutral species) turned out to be 3.
